PubChem BioAssay AID1918993 (Molecular Pharmacology Branch, DTP, NCI, 2023)

System: 233499-124-R-J3-PDC complex spheroid growth
Assay: Anticancer human tumor 233499-124-R-J3-PDC patient-derived colon adenocarcinoma cell line growth inhibition [AhR]
Conditions: for IC50: curve of first compound; for viability, T/C: stronger effect = lower value
Procedure, shortened: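 Complex tumor spheroids co-cultured with HUVEC and human MSC stroma; AhR antagonists tested in combination with standard-of-care and investigational agents. Top concentration at or near clinical Cmax (else 10 microM), half-log dilutions; growth expressed as percent test/control.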

[1] = second compound 0.1 µM, first compound 0.0316 µM
[2] = second compound 0.1 µM, first compound 0.1 µM
[3] = second compound 0.1 µM, first compound 0.316 µM
[4] = second compound 0.1 µM, first compound 1 µM
[5] = second compound 0.1 µM, first compound 3.16 µM
[6] = second compound 0.1 µM, first compound 10 µM
[7] = second compound 0.316 µM, first compound 0.0316 µM
[8] = second compound 0.316 µM, first compound 0.1 µM
[9] = second compound 0.316 µM, first compound 0.316 µM
[10] = second compound 0.316 µM, first compound 1 µM
[11] = second compound 0.316 µM, first compound 3.16 µM
[12] = second compound 0.316 µM, first compound 10 µM
[13] = second compound 1 µM, first compound 0.0316 µM
[14] = second compound 1 µM, first compound 0.1 µM
[15] = second compound 1 µM, first compound 0.316 µM
[16] = second compound 1 µM, first compound 1 µM
[17] = second compound 1 µM, first compound 3.16 µM
[18] = second compound 1 µM, first compound 10 µM
[19] = second compound 3.16 µM, first compound 0.0316 µM
[20] = second compound 3.16 µM, first compound 0.1 µM
[21] = second compound 3.16 µM, first compound 0.316 µM
[22] = second compound 3.16 µM, first compound 1 µM
[23] = second compound 3.16 µM, first compound 3.16 µM
[24] = second compound 3.16 µM, first compound 10 µM
[25] = second compound 10 µM, first compound 0.0316 µM
[26] = second compound 10 µM, first compound 0.1 µM
[27] = second compound 10 µM, first compound 0.316 µM
[28] = second compound 10 µM, first compound 1 µM
[29] = second compound 10 µM, first compound 3.16 µM
[30] = second compound 10 µM, first compound 10 µM
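Further: spheroids exposed to agents for seven days before reading.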

Question: What does the source list for `COc1cc(Nc2ncc3c(n2)-c2ccc(Cl)cc2C(c2c(F)cccc2OC)=NC3)ccc1C(=O)O` + CC(CO)NC(=O)c1cc(-c2ccc(Cl)cc2)nn(-c2cnn(C)c2)c1=O?
Answer: IC50 (second compound 0.1 µM): > 10 µM; IC50 (second compound 0.316 µM): > 10 µM; IC50 (second compound 1 µM): > 10 µM; IC50 (second compound 3.16 µM): > 10 µM; IC50 (second compound 10 µM): > 10 µM; viability, T/C [1]: 75.4%; viability, T/C [2]: 74.5%; viability, T/C [3]: 81%; viability, T/C [4]: 91.4%; viability, T/C [5]: 84.6%; viability, T/C [6]: 82.9%; viability, T/C [7]: 75.6%; viability, T/C [8]: 73.6%; viability, T/C [9]: 86.3%; viability, T/C [10]: 77.2%; viability, T/C [11]: 62.8%; viability, T/C [12]: 94%; viability, T/C [13]: 78.7%; viability, T/C [14]: 76.9%; viability, T/C [15]: 96%; viability, T/C [16]: 72.5%; viability, T/C [17]: 87.7%; viability, T/C [18]: 74%; viability, T/C [19]: 57.9%; viability, T/C [20]: 67.4%; viability, T/C [21]: 86.3%; viability, T/C [22]: 89.1%; viability, T/C [23]: 84.7%; viability, T/C [24]: 84.9%; viability, T/C [25]: 58.8%; viability, T/C [26]: 62.8%; viability, T/C [27]: 73.8%; viability, T/C [28]: 65.4%; viability, T/C [29]: 57.9%; viability, T/C [30]: 59.2%

Question: Which results are given for `Cn1ncnc1C1c2n[nH]c(=O)c3cc(F)cc(c23)NC1c1ccc(F)cc1` (stereo not given) + CC(CO)NC(=O)c1cc(-c2ccc(Cl)cc2)nn(-c2cnn(C)c2)c1=O?
Answer: IC50 (second compound 0.1 µM): > 0.1 µM; IC50 (second compound 0.316 µM): > 0.1 µM; IC50 (second compound 1 µM): > 0.1 µM; IC50 (second compound 3.16 µM): > 0.1 µM; IC50 (second compound 10 µM): > 0.1 µM; viability, T/C (second compound 0.1 µM, first compound 0.000316 µM): 97.1%; viability, T/C (second compound 0.1 µM, first compound 0.001 µM): 102%; viability, T/C (second compound 0.1 µM, first compound 0.00316 µM): 101%; viability, T/C (second compound 0.1 µM, first compound 0.01 µM): 106%; viability, T/C [1]: 86.7%; viability, T/C [2]: 104%; viability, T/C (second compound 0.316 µM, first compound 0.000316 µM): 90.6%; viability, T/C (second compound 0.316 µM, first compound 0.001 µM): 104%; viability, T/C (second compound 0.316 µM, first compound 0.00316 µM): 88.6%; viability, T/C (second compound 0.316 µM, first compound 0.01 µM): 92.6%; viability, T/C [7]: 108%; viability, T/C [8]: 87.5%; viability, T/C (second compound 1 µM, first compound 0.000316 µM): 93.6%; viability, T/C (second compound 1 µM, first compound 0.001 µM): 103%; viability, T/C (second compound 1 µM, first compound 0.00316 µM): 92.2%; viability, T/C (second compound 1 µM, first compound 0.01 µM): 109%; viability, T/C [13]: 77.6%; viability, T/C [14]: 101%; viability, T/C (second compound 3.16 µM, first compound 0.000316 µM): 97%; viability, T/C (second compound 3.16 µM, first compound 0.001 µM): 103%; viability, T/C (second compound 3.16 µM, first compound 0.00316 µM): 87.9%; viability, T/C (second compound 3.16 µM, first compound 0.01 µM): 98.9%; viability, T/C [19]: 91.2%; viability, T/C [20]: 87.6%; viability, T/C (second compound 10 µM, first compound 0.000316 µM): 83.2%; viability, T/C (second compound 10 µM, first compound 0.001 µM): 80.8%; viability, T/C (second compound 10 µM, first compound 0.00316 µM): 90.2%; viability, T/C (second compound 10 µM, first compound 0.01 µM): 83%; viability, T/C [25]: 87%; viability, T/C [26]: 78.7%

Question: What does the source list for `NS(=O)(=O)OCC1CC(n2ccc3c(NC4CCc5ccccc54)ncnc32)CC1O` (stereo not given) + CC(CO)NC(=O)c1cc(-c2ccc(Cl)cc2)nn(-c2cnn(C)c2)c1=O?
Answer: IC50 (second compound 0.1 µM): 0.229 µM; IC50 (second compound 0.316 µM): 0.196 µM; IC50 (second compound 1 µM): 0.214 µM; IC50 (second compound 3.16 µM): 0.194 µM; IC50 (second compound 10 µM): 0.112 µM; viability, T/C [1]: 100%; viability, T/C [2]: 81.9%; viability, T/C [3]: 38.2%; viability, T/C [4]: 6.95%; viability, T/C [5]: 3.58%; viability, T/C [6]: 2.89%; viability, T/C [7]: 101%; viability, T/C [8]: 76.1%; viability, T/C [9]: 32.2%; viability, T/C [10]: 4.48%; viability, T/C [11]: 2.85%; viability, T/C [12]: 1.79%; viability, T/C [13]: 97.3%; viability, T/C [14]: 83.6%; viability, T/C [15]: 32.7%; viability, T/C [16]: 7.56%; viability, T/C [17]: 2.89%; viability, T/C [18]: 2.21%; viability, T/C [19]: 97.8%; viability, T/C [20]: 85.1%; viability, T/C [21]: 23.9%; viability, T/C [22]: 7.17%; viability, T/C [23]: 4.49%; viability, T/C [24]: 4.6%; viability, T/C [25]: 89.6%; viability, T/C [26]: 54%; viability, T/C [27]: 12.6%; viability, T/C [28]: 4.19%; viability, T/C [29]: 4.04%; viability, T/C [30]: 2.93%

Question: For `O=C(C=Cc1cccc(S(=O)(=O)Nc2ccccc2)c1)NO` + CC(CO)NC(=O)c1cc(-c2ccc(Cl)cc2)nn(-c2cnn(C)c2)c1=O, which IC50 (second compound 0.1 µM) is on record?
Answer: Its IC50 is 5.44 µM.

Question: And the IC50 (second compound 0.316 µM)?
Answer: The IC50 was 2.91 µM.

Question: What about the IC50 (second compound 1 µM) of the same compound?
Answer: The IC50 was 5.15 µM.

Question: What about the IC50 (second compound 3.16 µM) of the same compound?
Answer: The IC50 was 3.07 µM.

Question: And the IC50 (second compound 10 µM)?
Answer: The IC50 was 3.52 µM.

Question: What about the viability, T/C [1] of the same compound?
Answer: The viability, T/C was 98%.

Question: What about the viability, T/C [2] of the same compound?
Answer: The viability, T/C was 108%.

Question: What about the viability, T/C [3] of the same compound?
Answer: Its viability, T/C is 111%.

Question: What about the viability, T/C [4] of the same compound?
Answer: The viability, T/C was 115%.

Question: What about the viability, T/C [5] of the same compound?
Answer: The viability, T/C was 89%.

Question: And the viability, T/C [6]?
Answer: The viability, T/C was 6.36%.

Question: What about the viability, T/C [7] of the same compound?
Answer: Its viability, T/C is 99.5%.

Question: What about the viability, T/C [8] of the same compound?
Answer: The viability, T/C was 93%.

Question: And the viability, T/C [9]?
Answer: Its viability, T/C is 98.2%.

Question: What about the viability, T/C [10] of the same compound?
Answer: The viability, T/C was 96.6%.

Question: What about the viability, T/C [11] of the same compound?
Answer: The viability, T/C was 46.3%.

Question: What about the viability, T/C [12] of the same compound?
Answer: Its viability, T/C is 4.58%.

Question: And the viability, T/C [13]?
Answer: Its viability, T/C is 97.6%.

Question: What about the viability, T/C [14] of the same compound?
Answer: The viability, T/C was 94.3%.

Question: And the viability, T/C [15]?
Answer: The viability, T/C was 110%.

Question: What about the viability, T/C [16] of the same compound?
Answer: The viability, T/C was 112%.

Question: And the viability, T/C [17]?
Answer: Its viability, T/C is 84.1%.

Question: And the viability, T/C [18]?
Answer: Its viability, T/C is 3.72%.

Question: What about the viability, T/C [19] of the same compound?
Answer: Its viability, T/C is 94.4%.

Question: What about the viability, T/C [20] of the same compound?
Answer: Its viability, T/C is 87.6%.

Question: What about the viability, T/C [21] of the same compound?
Answer: Its viability, T/C is 117%.

Question: And the viability, T/C [22]?
Answer: Its viability, T/C is 108%.

Question: What about the viability, T/C [23] of the same compound?
Answer: Its viability, T/C is 48.7%.

Question: What about the viability, T/C [24] of the same compound?
Answer: Its viability, T/C is 2.7%.

Question: And the viability, T/C [25]?
Answer: Its viability, T/C is 93.9%.

Question: What about the viability, T/C [26] of the same compound?
Answer: Its viability, T/C is 73.9%.

Question: And the viability, T/C [27]?
Answer: Its viability, T/C is 90.9%.

Question: What about the viability, T/C [28] of the same compound?
Answer: The viability, T/C was 119%.

Question: What about the viability, T/C [29] of the same compound?
Answer: The viability, T/C was 54.9%.

Question: And the viability, T/C [30]?
Answer: The viability, T/C was 3.22%.
